System: ACE
Assay: ACE inhibition (IC50) of synthesized peptides
Type: biochemical
Procedure: The ACE inhibition activity was assayed according to the method 15 of Matsui et al. (Matsui, T. et al. (1992) Biosci. Biotech. Biochem. 56: 517-518) with the modifications described below.
For each sample 75 μl 3 mM hippuryl histidine leucine (Hip-His-Leu, Sigma chemicals Co.; the chemical was dissolved in 250 mM Borate containing 200 mM NaCl, pH 8.3); 20 μl 0.1 U/ml ACE (obtained at Sigma) or H2 O, and 25 μl sample or H2O were mixed (see Table 1). The mixtures were incubated at 37° C. and stopped after 30 min by adding 125 μl 0.5 M HCl. Subsequently, 225 μl bicine/NaOH solution (1 M NaOH : 0.25 M bicine (4:6)) was added, followed by […] 0.1 M TNBS (2,4,6-Trinitrobenzenesulfonic acid, Fluka, Switzerland; in 0.1 M Na2HPO4). After incubation for 20 min. at 37° C., 4 ml 4 mM Na2SO3 in 0.2 M NaH2PO4 was added and the absorbance at 416 nm was measured with UV/Vis spectrophotometer (Shimadzu UV-1601 with a CPS controller, Netherlands). The amount of ACE inhibition (ACEI) activity was calculated as a percentage of inhibition compared with the conversion rate of ACE in the absence of an inhibitor: ACEI (%) (((C1-C2)-(S1-S2))/(C1-C2))*100 (1) wherein • C1=Absorbance without ACE inhibitory component (=max. ACE activity) [AU]. • C2=Absorbance without ACE inhibitory component and without ACE (background) [AU]. • S1=Absorbance in the presence of ACE and the ACE inhibitory component [AU]. • S2=Absorbance in the presence of the ACE inhibitory component, but without ACE [AU].

Substance | IC50
KVLPVP [Lys-Val-Leu-Pro-Val-Pro] | 5 µM
KVLPVPQ [Lys-Val-Leu-Pro-Val-Pro-Gln] | 1000 µM
Leu-Pro [LP] | > 1000 µM
Leu-Pro-Val [LPV] | > 1000 µM
Leu-Pro-Val-Pro (LPVP; printed: Leu-Pro-Val-Pro) | 250 µM
Val-Leu-Pro [VLP] | 120 µM

— patent publication US20050008751A1, “Fermented milk product” (Unilever Bestfoods, North America, priority 2001, published 2005)
